Each block holds one compound with its values, some of them ahead of it.
Experiments:
[1] = target: T1, Estrogen receptor (Rattus norvegicus) (UniProt P06211+Q62986); experiment: Oral estrogenic activity in uterotropic assay in rats at 40-1000 ng dose; format: functional
[2] = target: T1, Estrogen receptor (Rattus norvegicus)
Description: Oral estrogenic activity in uterotropic assay in rats at 100-1000 ng dose

[3] = target: T1, Estrogen receptor (Rattus norvegicus); remark: listed apart in the source
Description: Oral estrogenic activity in uterotropic assay in rats at 400-4000ng dose

[4] = target: T1, Estrogen receptor (Rattus norvegicus); experiment: Oral estrogenic activity in uterotropic assay in rats at 40-400 ng dose; format: functional
[5] = target: T1, Estrogen receptor (Rattus norvegicus); experiment: Oral estrogenic activity in uterotropic assay in rats at 20-200 ng dose; format: functional

Weight [1]: -52.2 mg
Structure (SMILES): CC12CCC3c4ccc(OC5CCCC5)cc4CCC3C1OCC2=O (stereo not given)

Weight [4]: -32.1 mg
Structure (SMILES): CC12CCC3c4ccc(O)cc4CCC3C1OCC2=O (stereo not given)

Continued, compound first:

Structure (SMILES): C#C[C@]1(O)COC2C3CCc4cc(OC)ccc4C3CCC21C (stereo not given in full)
Weight [2]: -23.9 mg

Structure (SMILES): C[C@]12CC[C@@H]3c4ccc(O)cc4CC[C@H]3[C@@H]1CCC2=O
Weight [3]: -120 mg

Structure (SMILES): CC12CCC3c4ccc(O)cc4CCC3C1OC[C@@H]2O (stereo not given in full)
Weight [5]: -7.8 mg
